In patent US8026231B2, “Aminothiolester compounds, pharmaceutical and cosmetic compositions containing same and uses thereof” (CNRS, priority 2000, dated 2011):
Values belong to the compound of their own block, whether it stands above or below them.

Legend:
[1] = system: BAF3 bcl2 cells; assay: Growth of BAF3 bcl2 cells (viable cell count, Trypan blue); format: cell-based, murine; settings: 50% inhibition of cell growth
Description: (§1) The cells used correspond to two cell lines: metastatic cells of human prostate cancer (DU145) and murine lymphoid cells transfected with the human bcl2 gene (BAF3 bcl2).
The procedure used for the tests on BAF3 bcl2 cells is as follows: • 10^5 cells are incubated in the various wells of a microplate in 1 ml of culture medium. After incubation for 4 hours, the test compounds are added to the wells containing the BAF3 bcl2 cells.
For the BAF3 bcl2 cells, the growth is measured by counting the viable cells in the presence of 0.1% Trypan blue. The control consists of thioampal, disclosed in patent application WO 98/44919.
(§2) The IC50 concentration is the concentration corresponding to a 50% inhibition of cell growth.

[2] = system: DU145 cells; assay: Growth of DU145 cells (protein and DNA assay, 72 h); format: cell-based, human
Description: as §1
The procedure used for the tests on DU145 is as follows: • 10^5 cells are incubated in the various wells of a microplate in 1 ml of culture medium.
(§3) The compounds are added 4 hours after placing the cells in the wells.
After 72 hours, the cells are removed at different times. The DU145 cells are washed twice with PBS and recovered directly with 0.1M sodium chloride.
(§4) The effect on the growth of the DU145 cells is measured by protein assay according to the Lowry method (Lowry, O. H., Rosenbrough, N. J., Farr, A. L. and Randall, J. Biol. Chem. 193, 265-275, (1951)) and DNA assay by the Hoechst method (West, D. C., Sattar, A. and Kumar, S., Anal. Biochem. 147, 289-295, (1985)).
as §2

[3] = system: R7 cells; assay: Growth of R7 cells which overexpress the MDR gene; format: cell-based; settings: increasing concentrations, 72 h, FIGS. 7 and 8
Description: (§5) 10^5 cells were incubated in the various wells of a microplate in 1 ml of culture medium. These are R7 cells, on the one hand, and K562 cells, on the other hand.
(§6) After incubating for 4 hours, the test compound (compound of Example 1 according to the invention, on the one hand, and daunorubicin, on the other hand) was added to the wells containing the cells.
(§7) After 72 hours, the cells were collected at different times.
(§8) The growth of the cells was measured by counting the viable cells in the presence of 0.1% Trypan blue.
(§9) FIGS. 7 and 8 respectively represent the percentage inhibition (I %) by daunorubicin and the compound of Example 1 on the growth of the R7 and K562 cells, obtained at increasing concentrations C. The results obtained with the K562 cells are symbolized by ♦ and those obtained with the R7 cells are symbolized by ▴.

[4] = system: K562 cells; assay: Growth of K562 cells (control, no MDR overexpression); format: cell-based, human; settings: increasing concentrations, 72 h, FIGS. 7 and 8
Description: as §5, §6, §7, §8, §9

[5] = system: DU145 cells; assay: Combination of two compounds of the invention on the growth of DU145 cells; format: cell-based, human; settings: Homo sapiens, DU-145
Description: (§10) 10^5 normal human prostate cells or 10^5 cancerous human prostate cells (DU145) are incubated in various wells of a microplate in 1 ml of culture medium.
as §3
(§11) After 72 hours, the cells are removed at different times. The DU145 cells or the normal cells are washed twice with PBS and recovered directly with 0.1M sodium chloride.
as §4, with “DU145 cells or the normal” for “DU145”

[6] = system: normal human prostate cells; assay: Combination of two compounds of the invention on normal human prostate cells; format: cell-based; settings: Homo sapiens, Prostate cell
Description: as §10, §3, §11
as §4, with “DU145 cells or the normal” for “DU145”

[7] = system: DU145 cells; assay: Combination of Example 1 and Metmetlico on the growth of DU145 cells; format: cell-based, human
Description: The cells used correspond to metastatic cells of human prostate cancer DU145. 10^5 DU145 cells are incubated in the various wells of a microplate in 1 ml of culture medium. The test compounds are added 4 hours after placing the cells in the wells. After 72 hours, the cells are removed at different times. The cells are washed twice with PBS and recovered directly with 0.1M sodium chloride. The effect on the growth of DU145 cells is measured by protein assay according to the Lowry method (Lowry, O. H., Rosenbrough, […]. and Randall, J. Biol. Chem. 193, 265-275, (1951)) and DNA assay by the Hoechst method (West, […]. and Kumar, S., Anal. Biochem. 147, 289-295, (1985)). The test compounds are the compound of Example 1, metmetlico and a mixture thereof.

[8] = Homo sapiens, DU-145, 50% inhibition of cell growth

IC50 [1]: 2.7 µM
IC50 ([2]; 50% inhibition of cell growth): 7.2 µM
SMILES: CSC(=O)C#CC(C)(C)N1CCCC1 [Example 4, S-methyl 4-methyl-4-pyrrodin-1-yl-2-pentynethioate]

IC50 ([1]; Mus musculus): 12 µM
IC50 [2, 8]: 8.8 µM
SMILES: CSC(=O)C#CC(C)(C)N1CCOCC1 [Example 5, S-methyl 4-methyl-4-morpholin-4-yl-2-pentynethioate]
inhibition at 1 µM ([5]; 1 μM): 14.3%
inhibition at 2 µM ([5]; 2 μM): 25.2%
inhibition at 1 µM ([6]; 1 μM): 0%
inhibition at 2 µM ([6]; 2 μM): 1.3%

The next lines start with the compound.

SMILES: COc1cccc2c1C(=O)c1c(O)c3c(c(O)c1C2=O)C[C@@](O)(C(C)=O)C[C@@H]3O[C@H]1C[C@H](N)[C@H](O)[C@H](C)O1 [daunorubicin, reference compound]
Inhibition of the growth of the R7 cells [3]: no inhibitory effect on the growth of the R7 cells
Inhibition of the growth of the K562 cells [4]: inhibits the growth of the K562 cells

SMILES: CSCCC(=O)SCCC(CCCCC(=O)OCC[N+](C)(C)C)SC(=O)CCSC.[I-] (stereo not drawn) [Metmetlico, 2′-(trimethylammonium)ethyl 6S,8S-bis(3-methyl-thiopropanoyl)octanoate iodide, reference compound]
% Inhibition of growth of the DU145 cells ([7]; 25 μM): 0%
% Inhibition of growth of the DU145 cells ([7]; 50 μM): 0%

SMILES: CCCN(CCC)C(C)(C)C#CC(=O)SC [Example 3, S-methyl 4-di-n-propylamino-4-methyl-2-pentynethioate]
IC50 ([1]; Mus musculus): 2.7 µM
IC50 [2, 8]: 8 µM
